Values quoted from earlier work as cited in article PMC12060149 (RSC Advances, 2025).

Legend:
ACE2 = ACE2 (Homo sapiens, UniProt Q9BYF1)
breast cancer tumor = settings: mice

Sequence of ACE2 (Q9BYF1 18-805): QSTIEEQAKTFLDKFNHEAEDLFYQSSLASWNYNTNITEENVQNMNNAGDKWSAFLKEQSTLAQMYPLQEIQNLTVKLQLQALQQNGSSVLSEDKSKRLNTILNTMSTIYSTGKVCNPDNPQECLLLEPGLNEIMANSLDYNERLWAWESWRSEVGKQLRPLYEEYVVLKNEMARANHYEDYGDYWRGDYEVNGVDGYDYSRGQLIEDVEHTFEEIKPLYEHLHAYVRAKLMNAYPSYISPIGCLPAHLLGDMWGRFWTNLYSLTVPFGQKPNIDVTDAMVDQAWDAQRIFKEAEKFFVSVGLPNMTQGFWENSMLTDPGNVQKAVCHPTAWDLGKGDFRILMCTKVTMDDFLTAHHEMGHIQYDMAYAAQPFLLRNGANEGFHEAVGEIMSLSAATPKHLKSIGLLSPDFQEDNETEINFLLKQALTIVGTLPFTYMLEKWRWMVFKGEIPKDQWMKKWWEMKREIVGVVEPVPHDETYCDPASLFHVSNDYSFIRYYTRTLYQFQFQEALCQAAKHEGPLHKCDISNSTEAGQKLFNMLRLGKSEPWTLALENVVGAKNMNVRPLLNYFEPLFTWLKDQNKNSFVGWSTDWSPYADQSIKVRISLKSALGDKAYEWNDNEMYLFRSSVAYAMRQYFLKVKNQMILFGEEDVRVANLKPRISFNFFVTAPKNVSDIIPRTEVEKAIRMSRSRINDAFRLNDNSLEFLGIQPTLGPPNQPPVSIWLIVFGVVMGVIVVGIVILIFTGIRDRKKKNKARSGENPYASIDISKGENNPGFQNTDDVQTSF

For `NCCC(=O)N[C@@H](Cc1cnc[nH]1)C(=O)O` [carnosine, Carnosine], the “concentration range of mild ACE2 inhibition” value (ACE2) is given as 100 to 300 mM, the MCF-7 proliferation (MCF-7; carnosine in the 100–300 mM range) is given as “increased but non-significantly” and the IC50 (MCF-7; read-out: IC50 of antiproliferative effect, two other research groups) is given as ~68 mM. The “breast cancer tumor size” value (breast cancer tumor) was “reduces the breast cancer tumor size”.
